For one test, the system named is Cells exposed to TPrP. To be noted: for EC50: read-out: Viability EC50.
In test [1] the test system is PK1 neuroblastoma cells treated with TPrP. The test is described as follows: cells. To be noted: Neuroblastoma cell, read-out: Viability EC50. The class given is cell-based.
For test [2] the test system is unchanged. The experiment in a line: cells. The class given is cell-based. The note with it: Neuroblastoma cell, read-out: NAD EC50.

Data on 55 molecules can be found in patent US12590094B2, “Compounds for the treatment of neurodegenerative and metabolic disorders” (UNIVERSITY OF FLORIDA RESEARCH FOUNDATION, INCORPORATED, priority 2019, dated 2026).

Like-named read-outs stand apart in the source and are kept apart here.

Consider `CCc1c(C(=O)NCCN)ncc2[nH]c3cc(OC)c(OC)cc3c12` [DMCM-8124], for which the EC50 in the test with Cells exposed to TPrP is around 1.8 µM. `CCc1c(C(=O)NCCN)ncc2[nH]c3cc(OC)c(OC)cc3c12` [DMCM-8130]: the EC50 in the test on Cells exposed to TPrP is around 0.6 µM. Turning to `COc1ccc(-c2cc(C(F)(F)F)n3ncc(C(=O)NCCCn4ccnc4)c3n2)cc1` [SR0-24081], the EC50 in the test on Cells exposed to TPrP stood at 0.0005 µM. As to `O=C(NCCCn1ccnc1)c1cnn2c(C(F)(F)F)cc(-c3ccc(Br)cc3)nc12` [SR0-24082], the “Viability EC50: % effective” value in the test on Cells exposed to TPrP is ~40% effective at nM, fully effective at 10 nM. `O=C(NCCCn1ccnc1)c1cnn2c(C(F)(F)F)cc(-c3ccc(F)cc3)nc12` [SR0-24083]: in the test with Cells exposed to TPrP (at 1 nM), the “Viability EC50: % effective” value is given as ~40% effective at 1 nM, fully effective at 10 nM.

In the case of `O=C(NCCCn1ccnc1)c1cnn2c(C(F)F)cc(-c3ccccc3)nc12` [SR0-24084], in the test with Cells exposed to TPrP (at 1 nM), the “Viability EC50: % effective” value is on record as ~40% effective at 1 nM, fully effective at 10 nM. As to `COc1ccc(-c2cc(C(F)(F)F)n3ncc(C(=O)NCCCn4ccnc4)c3n2)cc1` [SR0-28468], the EC50 with Cells exposed to TPrP is above 0.05 µM.

Turning to `COc1ccc(-c2cc(C(F)(F)F)n3ncc(C(=O)NCCCn4ccnc4C)c3n2)cc1` [SR0-31107], the 50% effective concentration (EC50) in the test on Cells exposed to TPrP was found to be 0.002 µM. On the same count and under the same terms, the result for `COc1ccc(-c2cc(C(F)(F)F)n3ncc(C(=O)NCCCn4ccnc4C)c3n2)cc1` [SR0-31108] reads above 0.05 µM. Turning to `Cc1ccc(-c2nnc3c4ccccc4c(C)nn23)cc1S(=O)(=O)NCCO` [SR1-87813], the EC50 in test [1] came to 0.156 µM; in test [2], 0.733 µM. The corresponding values for `COc1ccc(-c2nnc3c4ccccc4c(C)nn23)cc1S(=O)(=O)NC(C)(C)CO` [SR1-87819] are 0.098 µM and 0.682 µM.

With `CNS(=O)(=O)c1cc(-c2nnc3c4ccccc4c(C)nn23)ccc1C` [SR1-115255], the EC50 came out at 0.196 µM in test [1] and 1.2 µM in test [2]. Take `Cc1ccc(-c2nnc3c4ccccc4c(C)nn23)cc1S(=O)(=O)N1CCN(C)CC1` [SR1-115275]: the EC50 in test [1] turned out to be 0.839 µM; in test [2], 2.6 µM. Turning to `c1ccc2c(c1)OCC(CNc1nnc(Cc3ccncc3)c3ccccc13)O2` (stereo not drawn) [SR1-134003], the results for the EC50 in test [1] and in test [2] were 0.2 µM and 1.2 µM, respectively.

As for `COc1ccc(-c2csc(Nc3ccc(S(N)(=O)=O)cc3)n2)cc1` [SR1-223735], the results for the EC50 in test [1] and in test [2] were 0.087 µM and 0.36 µM, respectively. The matching figures for `NS(=O)(=O)c1ccc(Nc2nc(-c3ccc4ccccc4c3)cs2)cc1` [SR1-281377]: 0.192 µM and 1.2 µM. For the molecule `CC(=O)Nc1cccc(-c2csc(Nc3ccc(S(N)(=O)=O)cc3)n2)c1` [SR1-364643], the EC50 amounted to 0.053 µM in test [1] and 0.263 µM in test [2]. With `NS(=O)(=O)c1ccc(Nc2nc(-c3ccccn3)cs2)cc1` [SR1-477176], the EC50 in test [1] stood at 0.227 µM; in test [2] it was 0.891 µM. In the case of `Cc1nc2sccn2c1-c1csc(Nc2ccc(S(N)(=O)=O)cc2)n1` [SR1-477230], the 50% effective concentration (EC50) amounted to 0.047 µM in test [1] and 0.204 µM in test [2]. With `Cc1nc2ncccn2c1-c1csc(Nc2ccc(S(N)(=O)=O)cc2)n1` [SR1-477264], the EC50 in test [1] stood at 0.155 µM; in test [2], 0.597 µM.

On to `NS(=O)(=O)c1ccc(Nc2nc(-c3ccccc3)cs2)cc1` [SR1-492469], for which the EC50 in test [1] amounted to 0.311 µM; in test [2], 0.859 µM. On to `Cc1ccc(-c2cc(C(F)(F)F)n3ncc(C(=O)NCCCn4ccnc4)c3n2)cc1` [SR1-527764], for which the EC50 stood at 0.0019 µM in test [1] and 0.0071 µM in test [2].

In the case of `O=C(NCCCn1ccnc1)c1cnn2c(C(F)(F)F)cc(-c3ccc(-c4ccco4)cc3)nc12` [SR1-550907], the EC50 in test [1] came out at 0.0029 µM; in test [2], 0.0097 µM. As for `Cc1ccc(-c2nnc3c4ccccc4c(C)nn23)cc1S(=O)(=O)N1CCN(CCO)CC1` [SR1-626887], the EC50 in test [1] was below 0.003 µM; in test [2], 0.0091 µM. The corresponding values for `COc1ccc2cc3[n+](cc2c1OC)CCc1cc2c(cc1-3)OCO2` [SR1-711827, berberine chloride] are 3.1 µM and 13.2 µM.

As for `O=c1cc(-c2ccc(O)cc2)oc2cc(O[C@@H]3O[C@H](CO)[C@@H](O)[C@H](O)[C@H]3OC3OC[C@](O)(CO)[C@H]3O)cc(O)c12` (stereo partly drawn) [SR1-712126], the EC50 in test [1] was 4.6 µM; in test [2], 10.7 µM. For the molecule `COc1ccc2c3c([nH]c2c1)C(C)=NCC3` [SR1-721899, harmaline], the values for the EC50 in test [1] and in test [2] were 3.8 µM and 14 µM, respectively.

In the case of `NS(=O)(=O)c1ccc(Nc2nc(-c3ccc(F)cc3)cs2)cc1` [SR1-742242], the EC50 came out at 0.197 µM in test [1] and 0.946 µM in test [2]. Turning to `CN1C[C@H](CO)C=C2c3cccc4[nH]cc(c34)C[C@H]21` [SR1-758923, lysergol], the results for the EC50 in test [1] and in test [2] were 1.9 µM and above 15 µM, respectively. Regarding `COc1cc2c(cc1O)C[C@H]1c3c(cc(O)c(OC)c3-2)CCN1C` [SR1-758928, boldine], the EC50 in test [1] was found to be 2 µM; in test [2], 7.6 µM.

In the case of `COc1cc(OC)c2c(=O)cc(-c3ccccc3)oc2c1` [SR1-758978, 5,7-dimethoxy-2-phenyl-4H-chromen-4-one], the EC50 was 1.7 µM in test [1] and above 10 µM in test [2]. As to `NS(=O)(=O)c1ccc(Nc2nc(-c3cccnc3)cs2)cc1` [SR1-809850], the EC50 came to 0.088 µM in test [1] and 0.337 µM in test [2].

Turning to `COc1cc2c(cc1OC)-c1cc3ccc(OC)c(OC)c3c[n+]1CC2` [SR1-841226, palmatine chloride], the EC50 amounted to 1.1 µM in test [1] and 2 µM in test [2]. The matching figures for `COc1ccc2c(c1O)-c1c(OC)c(O)cc3c1[C@H](C2)N(C)CC3` [SR1-841246, N-Methyl lindcarpine]: 4.4 µM and above 15 µM. As to `COc1ccc(-c2cc(C(F)(F)F)n3ncc(C(=O)NCCCn4ccnc4C)c3n2)cc1` [SR3-5210], in the test on Cells exposed to TPrP, the 50% effective concentration (EC50) amounted to 0.0027 µM. For `COc1ccc(-c2cc(C(F)(F)F)n3ncc(C(=O)NCCCn4ccnc4)c3n2)cc1` [SR3-5230], the EC50 with Cells exposed to TPrP was above 0.032 µM. As to `COc1ccc(-c2cc(C(F)(F)F)n3ncc(C(=O)NCCCn4ccnc4)c3n2)cc1` [SR3-5315], the EC50 in the test with Cells exposed to TPrP was above 0.016 µM.

With `COc1ccc2c(c1)[nH]c1c(C)nccc12` [SR5-1527, methoxy harman], the EC50 in test [1] amounted to 1.8 µM; in test [2] it was 14 µM. Regarding `O=c1cc(-c2ccc(O)cc2)oc2cc(O[C@@H]3O[C@H](CO)[C@H](O)[C@H](O)[C@H]3O)cc(O)c12` [SR5-2196, apigenin 7-(β-D-galactopyranosyl) ether], the EC50 in test [1] was 4.6 µM; in test [2], above 10 µM. Regarding `COc1cc2c(cc1OC)[C@H]1[C@@H](C)c3ccc(OC)c(OC)c3CN1CC2` [SR5-2225, corydaline], the EC50 was 1.3 µM in test [1] and 2 µM in test [2]. `COc1ccc(C2CC(=O)c3cc(OC)ccc3O2)cc1` (stereo not drawn) [SR5-2542, 6-methoxy-2-(4-methoxyphenyl) chroman-4-one]: the EC50 in test [1] is 2.1 µM; in test [2] it was above 10 µM. The matching figures for `COc1ccc(-c2cc(=O)c3c(O)cc(OC)cc3o2)cc1` [SR5-2549, 5-hydroxy-7-methoxy-2-(4-methoxyphenyl)-4H-chromen-4-one]: 2 µM and 7.3 µM. The corresponding values for `COc1ccc(-c2cc(=O)c3c(O)cc(OC)c(OC)c3o2)c(OC)c1` [SR5-2616, 2-(2,4-dimethoxyphenyl)-5-hydroxy-7,8-dimethoxy-4H-chromen-4-one] are 1.6 µM and 2.1 µM. Turning to `COc1cc2cc3c4cc(OC)c(OC)cc4cc[n+]3c(C)c2cc1OC` [SR5-2641, coralyne chloride], the EC50 was determined as 0.507 µM in test [1] and 0.671 µM in test [2]. On to `COc1ccc(-c2oc3cc(OC)c(OC)c(OC)c3c(=O)c2OC)cc1OC` [SR5-2644, 2-(3,4-dimethoxyphenyl)-3,5,6,7-tetramethoxy-4H-chromen-4-one], for which the values for the EC50 in test [1] and in test [2] were 0.62 µM and 1.2 µM, respectively. Take `COc1ccc(-c2cc(=O)c3c(O)c(OC)c(O[C@H]4O[C@H](CO[C@@H]5O[C@@H](C)[C@H](O)[C@@H](O)[C@H]5O)[C@@H](O)[C@H](O)[C@H]4O)cc3o2)cc1` [SR5-2766, pectolinargenin 7-[6-O-(6-deoxy-α-L-mannopyranosyl)-β-D-glucopyranosyl] ether]: the EC50 in test [1] came to 2.1 µM; in test [2] it was 4 µM. With `COc1ccc(-c2nnc3c4ccccc4c(C)nn23)cc1S(=O)(=O)N1CCOCC1` [SR5-22837], the EC50 in test [1] is 0.029 µM; in test [2], 0.089 µM. As to `COc1ccc(-c2nnc3c4ccccc4c(C)nn23)cc1S(=O)(=O)NCc1cccnc1` [SR5-22838], the figures for the EC50 in test [1] and in test [2] were 0.09 µM and 0.38 µM, respectively. The matching figures for `Cc1ccc(-c2nnc3c4ccccc4c(C)nn23)cc1S(=O)(=O)NCc1cccnc1` [SR5-22839]: 0.028 µM and 0.092 µM. For `COCCNS(=O)(=O)c1cc(-c2nnc3c4ccccc4c(C)nn23)ccc1C` [SR5-22841], the EC50 was 0.13 µM in test [1] and 0.688 µM in test [2]. For the molecule `Cc1ccc(-c2cc(C(F)F)n3ncc(C(=O)NCCCn4ccnc4)c3n2)cc1` [SR-024088], the “Viability EC50: % effective” value in the test on Cells exposed to TPrP (at 1 nM) is reported as above 80% effective at 1 nM. On to `Cc1nc(C)c(-c2csc(Nc3ccc(S(N)(=O)=O)cc3)n2)s1` [SR-27807], for which the EC50 with Cells exposed to TPrP amounted to 0.05 µM. `COc1ccc(-c2cc(=O)c3c(OC)c(OC)c(OC)cc3o2)cc1OC` [SR-05000002257, 2-(3,4-dimethoxyphenyl)-5,6,7-trimethoxy-4H-chromen-4-one]: the EC50 in test [1] turned out to be 0.323 µM; in test [2], 3.6 µM. Turning to `COc1ccc(-c2cc(=O)c3c(OC)c(OC)c(OC)c(OC)c3o2)cc1` [SR-05000002625, 5,6,7,8-tetramethoxy-2-(4-methoxyphenyl)-4H-chromen-4-one], the figures for the EC50 in test [1] and in test [2] were 1.9 µM and 6 µM, respectively. For `COc1ccc(-c2cc(=O)c3c(O)c(OC)c(OC)c(OC)c3o2)cc1OC` [SR-05000002635, 2-(3,4-dimethoxyphenyl)-5-hydroxy-6,7,8-trimethoxy-4H-chromen-4-one], the EC50 came out at 0.081 µM in test [1] and 0.609 µM in test [2].
